Experimental data as given in ChEMBL document CHEMBL5506035, “Discovery of Glutamate Carboxypeptidase III Ligands to Compete the Uptake of [177Lu]Lu-PSMA-617 in Healthy Organs” (J Med Chem, 2024).

Legend:
[1] = molecular target: T1, N-acetylated-alpha-linked acidic dipeptidase 2 (Homo sapiens, UniProt Q9Y3Q0); assay: Displacement of [177Lu]LU-PSMA-617 from human recombinant GCPIII assessed as dissociation constant by fluorescence polarization assay
[2] = molecular target: T2, Glutamate carboxypeptidase 2 (Homo sapiens, UniProt Q04609); assay: Displacement of [177Lu]LU-PSMA-617 from human recombinant PSMA assessed as dissociation constant by fluorescence polarization assay
T2 sequence (Q04609 whole entry): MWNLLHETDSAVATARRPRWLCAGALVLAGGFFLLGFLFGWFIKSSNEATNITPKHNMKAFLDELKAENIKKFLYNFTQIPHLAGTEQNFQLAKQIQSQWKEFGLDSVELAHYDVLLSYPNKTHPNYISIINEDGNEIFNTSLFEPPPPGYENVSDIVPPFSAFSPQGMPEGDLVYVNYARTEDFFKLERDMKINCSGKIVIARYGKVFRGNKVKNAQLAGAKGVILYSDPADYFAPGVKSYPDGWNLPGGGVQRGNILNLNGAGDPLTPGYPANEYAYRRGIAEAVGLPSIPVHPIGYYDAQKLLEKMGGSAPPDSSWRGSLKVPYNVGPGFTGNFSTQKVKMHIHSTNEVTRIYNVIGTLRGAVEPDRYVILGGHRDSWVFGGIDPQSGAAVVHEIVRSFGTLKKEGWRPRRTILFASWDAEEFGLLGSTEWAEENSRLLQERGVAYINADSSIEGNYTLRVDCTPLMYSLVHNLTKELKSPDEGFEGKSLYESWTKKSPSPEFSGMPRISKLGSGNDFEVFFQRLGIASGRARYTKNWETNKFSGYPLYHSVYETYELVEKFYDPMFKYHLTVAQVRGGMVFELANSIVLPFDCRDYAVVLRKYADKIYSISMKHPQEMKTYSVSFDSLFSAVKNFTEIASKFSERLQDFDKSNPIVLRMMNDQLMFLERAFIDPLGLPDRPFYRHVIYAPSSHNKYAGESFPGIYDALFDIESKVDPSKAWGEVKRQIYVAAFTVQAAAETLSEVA

[3] = molecular target: T1, N-acetylated-alpha-linked acidic dipeptidase 2; assay: Binding affinity to human recombinant GCPIII assessed as dissociation constant by fluorescence polarization assay
[4] = molecular target: T2, Glutamate carboxypeptidase 2; assay: Binding affinity to human recombinant PSMA assessed as dissociation constant by fluorescence polarization assay

T1 sequence (Q9Y3Q0 whole entry): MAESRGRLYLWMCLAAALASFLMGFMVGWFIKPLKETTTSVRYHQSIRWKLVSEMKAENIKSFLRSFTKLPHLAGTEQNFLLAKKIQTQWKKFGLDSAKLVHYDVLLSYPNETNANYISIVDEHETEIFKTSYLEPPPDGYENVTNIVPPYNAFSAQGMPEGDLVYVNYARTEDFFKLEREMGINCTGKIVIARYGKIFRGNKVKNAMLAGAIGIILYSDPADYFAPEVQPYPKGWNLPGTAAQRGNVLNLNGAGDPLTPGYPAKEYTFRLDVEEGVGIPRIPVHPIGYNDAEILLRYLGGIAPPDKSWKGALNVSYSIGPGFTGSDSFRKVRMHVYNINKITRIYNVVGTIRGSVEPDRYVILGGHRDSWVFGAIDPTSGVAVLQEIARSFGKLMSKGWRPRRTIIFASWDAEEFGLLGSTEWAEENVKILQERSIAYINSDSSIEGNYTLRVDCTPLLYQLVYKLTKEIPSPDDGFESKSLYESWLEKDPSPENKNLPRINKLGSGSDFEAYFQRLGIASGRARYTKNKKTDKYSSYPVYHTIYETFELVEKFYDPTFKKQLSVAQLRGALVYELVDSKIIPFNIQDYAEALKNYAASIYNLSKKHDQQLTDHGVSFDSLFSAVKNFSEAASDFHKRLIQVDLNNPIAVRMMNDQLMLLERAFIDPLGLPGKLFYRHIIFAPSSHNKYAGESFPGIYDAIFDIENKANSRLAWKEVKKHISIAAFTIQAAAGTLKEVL

SMILES | Kd [1] [µM] | Kd [2] [µM] | Kd [3] [µM] | Kd [4] [µM]
NCCCC[C@H](NC(=O)[C@@H]1C[C@@H](NC(=O)c2c[nH]nn2)CN1C(=O)c1cnoc1C1CC1)C(=O)O | 13 | > 20 | – | –
Cn1cc(C(=O)N[C@@H]2C[C@@H](C(=O)N[C@@H](CCCCNC(=S)Nc3ccc4c(c3)C(=O)OC43c4ccc(O)cc4Oc4cc(O)ccc43)C(=O)O)N(C(=O)c3cnoc3C3CC3)C2)nn1 | – | – | > 0.5 | –
NC[C@H](NC(=O)[C@@H]1C[C@@H](NC(=O)c2c[nH]nn2)CN1C(=O)c1c[nH]nn1)C(=O)O | 10 | > 20 | – | –
Cn1nncc1C(=O)N[C@@H]1C[C@@H](C(=O)N[C@@H](CCCCNC(=S)Nc2ccc3c(c2)C(=O)OC32c3ccc(O)cc3Oc3cc(O)ccc32)C(=O)O)N(C(=O)c2cnoc2C2CC2)C1 | – | – | > 0.5 | –
O=C(Cn1ccnn1)N[C@@H]1C[C@@H](C(=O)N[C@@H](CCCCNC(=S)Nc2ccc3c(c2)C(=O)OC32c3ccc(O)cc3Oc3cc(O)ccc32)C(=O)O)N(C(=O)c2cnoc2C2CC2)C1 | – | – | > 0.5 | –
NCCCC[C@H](NC(=O)[C@@H]1C[C@@H](NC(=O)c2c[nH]nn2)CN1C(=O)c1c[nH]nn1)C(=O)O | 17 | > 20 | – | –
CC(=O)NC[C@H](NC(=O)[C@@H]1C[C@@H](NC(=O)c2c[nH]nn2)CN1C(=O)c1c[nH]nn1)C(=O)O | 0.067 | > 20 | – | –
CC(C)c1nocc1C(=O)N1C[C@H](NC(=O)c2c[nH]nn2)C[C@H]1C(=O)N[C@@H](CCCCNC(=S)Nc1ccc2c(c1)C(=O)OC21c2ccc(O)cc2Oc2cc(O)ccc21)C(=O)O | – | – | 0.03 | > 1
O=C(N[C@@H]1C[C@@H](C(=O)N[C@@H](CCCCNC(=S)Nc2ccc3c(c2)C(=O)OC32c3ccc(O)cc3Oc3cc(O)ccc32)C(=O)O)N(C(=O)c2cnoc2-c2ccccc2)C1)c1c[nH]nn1 | – | – | 0.0064 | 0.023
CC(=O)NCCCC[C@H](NC(=O)[C@@H]1C[C@@H](NC(=O)c2c[nH]nn2)CN1C(=O)c1cnoc1C1CC1)C(=O)O | 0.041 | > 20 | – | –
O=C(NCCCC[C@H](NC(=O)[C@@H]1C[C@@H](NC(=O)c2c[nH]nn2)CN1C(=O)c1cnoc1C1CC1)C(=O)O)c1c[nH]nn1 | 0.012 | > 20 | – | –
CC(=O)NC[C@H](NC(=O)[C@@H]1C[C@@H](NC(=O)c2c[nH]nn2)CN1C(=O)c1cnoc1C1CC1)C(=O)O | 2 | > 20 | – | –
O=C(N[C@@H]1C[C@@H](C(=O)N[C@@H](CCCCNC(=S)Nc2ccc3c(c2)C(=O)OC32c3ccc(O)cc3Oc3cc(O)ccc32)C(=O)O)N(C(=O)c2c[nH]nn2)C1)c1c[nH]nn1 | – | – | 0.0048 | > 1
CC(C)c1oncc1C(=O)N1C[C@H](NC(=O)c2c[nH]nn2)C[C@H]1C(=O)N[C@@H](CCCCNC(=S)Nc1ccc2c(c1)C(=O)OC21c2ccc(O)cc2Oc2cc(O)ccc21)C(=O)O | – | – | 0.0043 | 0.178
O=C(N[C@@H]1C[C@@H](C(=O)N[C@@H](CCCCNC(=S)Nc2ccc3c(c2)C(=O)OC32c3ccc(O)cc3Oc3cc(O)ccc32)C(=O)O)N(C(=O)c2cnoc2C2CC2)C1)c1nc[nH]n1 | – | – | > 0.3 | –
Cc1[nH]nnc1C(=O)N[C@@H]1C[C@@H](C(=O)N[C@@H](CCCCNC(=S)Nc2ccc3c(c2)C(=O)OC32c3ccc(O)cc3Oc3cc(O)ccc32)C(=O)O)N(C(=O)c2cnoc2C2CC2)C1 | – | – | > 0.5 | –
N=c1ccc2c(-c3ccc(C(=O)NCCCC[C@H](NC(=O)[C@@H]4C[C@@H](NC(=O)c5c[nH]nn5)CN4C(=O)c4cnoc4C4CC4)C(=O)O)cc3C(=O)O)c3ccc(N)c(S(=O)(=O)O)c3oc-2c1S(=O)(=O)O | – | – | 0.0045 | > 1
O=C(NC[C@H](NC(=O)[C@@H]1C[C@@H](NC(=O)c2c[nH]nn2)CN1C(=O)c1cnoc1C1CC1)C(=O)O)c1c[nH]nn1 | 0.008 | 1.3 | – | –

SMILES | Kd [1] [µM] | Kd [2] [µM] | Kd [3] [µM] | Kd [4] [µM]
O=C(NC[C@H](NC(=O)[C@@H]1C[C@@H](NC(=O)c2c[nH]nn2)CN1C(=O)c1c[nH]nn1)C(=O)O)c1c[nH]nn1 | 0.0015 | 0.231 | – | –
COC(=O)[C@H](CCCCNC(=S)Nc1ccc2c(c1)C(=O)OC21c2ccc(O)cc2Oc2cc(O)ccc21)NC(=O)[C@@H]1C[C@@H](NC(=O)c2c[nH]nn2)CN1C(=O)c1cnoc1C1CC1 | – | – | 0.012 | 0.332
CC(=O)N1C[C@H](NC(=O)c2c[nH]nn2)C[C@H]1C(=O)N[C@@H](CCCCNC(=S)Nc1ccc2c(c1)C(=O)OC21c2ccc(O)cc2Oc2cc(O)ccc21)C(=O)O | – | – | 0.169 | > 1
COc1ccc(C2=[N+]3C(=Cc4c(C)c(CCC(=O)NCCCC[C@H](NC(=O)[C@@H]5C[C@@H](NC(=O)c6c[nH]nn6)CN5C(=O)c5cnoc5C5CC5)C(=O)O)c(C)n4[B-]3(F)F)C=C2)cc1 | – | – | 0.015 | > 1
O=C(N[C@@H]1C[C@@H](C(=O)N[C@H](CCCCNC(=S)Nc2ccc3c(c2)C(=O)OC32c3ccc(O)cc3Oc3cc(O)ccc32)C(=O)O)N(C(=O)c2cnoc2C2CC2)C1)c1c[nH]nn1 | – | – | 0.023 | > 1
CC(=O)NCCCC[C@H](NC(=O)[C@@H]1C[C@@H](NC(=O)c2c[nH]nn2)CN1C(=O)c1cnoc1C1CC1)C(=O)Nc1c[nH]nn1 | 3.2 | > 20 | – | –
O=C(NCCCC[C@H](NC(=O)[C@@H]1C[C@@H](NC(=O)c2c[nH]nn2)CN1C(=O)c1c[nH]nn1)C(=O)O)c1c[nH]nn1 | 0.012 | > 20 | – | –
O=C1OC2(c3ccc(O)cc3Oc3cc(O)ccc32)c2ccc(NC(=S)NCCCC[C@H](NC(=O)[C@@H]3C[C@@H](Cc4c[nH]nn4)CN3C(=O)c3cnoc3C3CC3)C(=O)O)cc21 | – | – | 0.106 | > 1
O=C1OC2(c3ccc(O)cc3Oc3cc(O)ccc32)c2ccc(NC(=S)NCCCC[C@H](NC(=O)[C@@H]3C[C@@H](n4cc(-c5c[nH]nn5)nn4)CN3C(=O)c3cnoc3C3CC3)C(=O)O)cc21 | – | – | > 0.3 | –
O=C(NCCCC[C@H](NC(=O)[C@@H]1C[C@@H](NC(=O)c2c[nH]nn2)CN1C(=O)c1c[nH]nn1)C(=O)Nc1c[nH]nn1)c1c[nH]nn1 | 0.338 | > 20 | – | –
CC(=O)NCCCC[C@H](NC(=O)[C@@H]1C[C@@H](NC(=O)c2c[nH]nn2)CN1C(=O)c1c[nH]nn1)C(=O)O | 6.4 | 15 | – | –
O=C(N[C@@H]1C[C@@H](C(=O)N[C@@H](CCCCNC(=S)Nc2ccc3c(c2)C(=O)OC32c3ccc(O)cc3Oc3cc(O)ccc32)C(=O)O)N(C(=O)c2cnoc2C2CC2)C1)c1c[nH]cn1 | – | – | > 0.3 | –
O=C(N[C@@H]1C[C@@H](C(=O)O)N(C(=O)c2cnoc2C2CC2)C1)c1c[nH]nn1 | 0.3 | > 20 | – | –
CC(=O)N[C@@H]1C[C@@H](C(=O)N[C@@H](CCCCNC(=S)Nc2ccc3c(c2)C(=O)OC32c3ccc(O)cc3Oc3cc(O)ccc32)C(=O)O)N(C(=O)c2cnoc2C2CC2)C1 | – | – | > 2.6 | –
O=C(NCCCCNC(=O)NCCCC[C@H](NC(=O)[C@@H]1C[C@@H](NC(=O)c2c[nH]nn2)CN1C(=O)c1cnoc1C1CC1)C(=O)O)NCCCC[C@H](NC(=O)[C@@H]1C[C@@H](NC(=O)c2c[nH]nn2)CN1C(=O)c1cnoc1C1CC1)C(=O)O | 0.053 | 13 | – | –
O=C(N[C@@H]1C[C@@H](C(=O)NCCCCCCNC(=S)Nc2ccc3c(c2)C(=O)OC32c3ccc(O)cc3Oc3cc(O)ccc32)N(C(=O)c2cnoc2C2CC2)C1)c1c[nH]nn1 | – | – | 0.007 | 0.048
O=C(CCOCCOCCOCCOCCOCCOCCOCCOCCOCCOCCC(=O)NCCCC[C@H](NC(=O)[C@@H]1C[C@@H](NC(=O)c2cnn[nH]2)CN1C(=O)c1cnoc1C1CC1)C(=O)O)NCCCC[C@H](NC(=O)[C@@H]1C[C@@H](NC(=O)c2cnn[nH]2)CN1C(=O)c1cnoc1C1CC1)C(=O)O | 0.505 | > 20 | – | –
